# Test results from PMC11277004, “Di- and Triselenoesters—Promising Drug Candidates for the Future Therapy of Triple-Negative Breast Cancer” (International Journal of Molecular Sciences, 2024).
# Where two headings read alike, the source gives them in different places.
# How the values were obtained:
# [1] = test system: MCF-10A normal human breast epithelial cells; test: DNA biosynthesis assay ([3H]-thymidine incorporation), MCF-10A; type: cell-based; details: read-out: IC50, DNA biosynthesis
# Protocol: The study of the antiproliferative properties (intensity of [^3H]-thymidine incorporation into cell DNA) of the tested derivatives against tested cell lines (MCF-7, MDA-MB-231, MCF-10A) was performed after 24 h incubation with varied concentrations of the tested compounds in the medium (0.5–5 µM) in 6-well plates (baseline seeding density: 5 × 10^5 cells/well). After 24 h the medium was removed, the cells were washed with PBS (Corning, Kennebunk, ME, USA), and a fresh medium was added. After that, the cells were treated with 0.5 µCi of tritium-labeled thymidine (specific activity 7 Ci/mmol) by incubating them with this compound for 4 h under the same conditions as the cell culture. In the first step, the medium was removed, and the cell monolayer was washed twice with 1 mL of 0.05 M Tris-HCl buffer pH 7.4 containing 0.11 M NaCl. To denature proteins, the cells were washed twice with 1 mL of 5% trichloroacetic acid (TCA) solution. Finally, cell lysis was performed by adding 1 mL of 0.1 M sodium hydroxide (NaOH) solution containing 1% sodium dodecyl sulfate (SDS) to each well. After five minutes, the obtained cell lysates were transferred to scintillation vials with 2 mL of scintillation fluid added to them beforehand. Radioactivity was measured using the Scintillation Counter 1900 TR, TRI-CARB (Packard, Perkin Elmer, Inc., San Jose, CA, USA). The intensity of DNA biosynthesis in the analyzed cells was expressed in terms of dpm/well. The result of the radioactivity measurement in the control cells (without the addition of tested compounds) was taken as 100%, while the values of cells incubated with the tested compounds were presented as a percentage of the control value.
# Bax = Bax protein level by flow cytometry, MCF-7; type: cell-based, human; details: 24 h
# Protocol: For this purpose, Akt (PE), Bax (FITC), Bcl-2 (Alexa Fluor® 647), LC3A/B (Alexa Fluor® 488), and p53 (Alexa Fluor® 488) antibodies conjugated to different fluorochromes (all from Cell Signaling Technology, Beverly, MA, USA) were utilized. Each assay was performed according to the manufacturer's protocol available on their website. After incubation with the tested compounds, the cells were centrifuged, resuspended in 4% formaldehyde (100 μL/1 × 10^6 cells), and fixed for 15 min at room temperature. Afterward, to remove the formaldehyde, the cells were washed by centrifugation with excess PBS and the permeabilization step was triggered. For this purpose, ice-cold 90% methanol was added to the pre-chilled cell pellet, gently vortexed, and incubated for 1 h on ice. Later, the cells were washed by centrifugation with excess PBS again, resuspended in 100 μL of 1:100 diluted primary antibody (stain buffer was used for dilution), and incubated for 1 h at room temperature in the dark. After incubation, the cells were washed, resuspended in 300 μL PBS, and immediately tested with a flow cytometer (BD FACSCanto II, BD Biosciences Systems, San Jose, CA, USA; 10,000 events measured). The obtained results were analyzed using the FACSDiva 6.0 software (BD Biosciences Systems, San Jose, CA, USA). In the case of the p53 protein, the MRF values were obtained first during the flow cytometer readout utilizing FACSDiva software and later analyzed using FCS Express 7 (De Novo Software, Pasadena, CA, USA). The equipment calibration was performed using the BD Cytometer Setup and Tracking Beads (BD Biosciences, San Diego, CA, USA).
# caspase 9 = test: Caspase 9 activity (FAM-FLICA, flow cytometry), MDA-MB-231; type: cell-based, human; details: 24 h
# Protocol: The FAM-FLICA® Caspase Assay kits (all from ImmunoChemistry Technologies, Bloomington, MN, USA) and flow cytometer (BD FACSCanto II, BD Biosciences Systems, San Jose, CA, USA) were used to evaluate the activity of caspase 3/7, 8, and 9. MCF-7 and MDA-MB-231 cells were treated with selenoesters under the study (EDAG-1 and EDAG-8) and a reference agent (cisplatin) at two different concentrations (0.5 and 1 µM; treatment duration: 24 h). Following this, cells were collected, washed twice with cold PBS, and resuspended in an Apoptosis Wash Buffer to a final concentration of 5 × 10^5 cells/mL. In the next step, 290 µL each of cell suspension was taken and transferred into tubes. Then 10 µL of FLICA solution diluted immediately before use (1:5 v/v, using PBS) was added to the cells, mixed by pipetting, and incubated in the dark for 1 h at 37 °C. After this time, the cells were washed twice with 2 mL Apoptosis Wash Buffer, centrifuged, and resuspended in 300 µL of the buffer. Thus, prepared samples were immediately analyzed using a BD FACSCanto II flow cytometer (10,000 events) with the FACSDiva 6.0 software (both from BD Biosciences Systems, San Jose, CA, USA). The equipment calibration was carried out using the BD Cytometer Setup and Tracking Beads (BD Biosciences, San Diego, CA, USA).
structure (smiles),measurement,setting,value
"CC(=O)C[Se]C(=O)c1ccc(C(=O)[Se]CC(C)=O)cc1 [EDAG-1, Se,Se-bis(2-oxopropyl) benzene-1,4-bis(carboselenoate)]",IC50,"[1]; Homo sapiens, 24 h",720 ± 70 nM
same,Bax positive cells ± SD,"Bax; MCF-7, 0.5 μM",6.1 ± 0.9%
same,Bax positive cells ± SD,"Bax; MCF-7, 1 μM",8.6 ± 1.0%
same,Active caspase 9 ± SD (cells),"caspase 9; MDA-MB-231, 0.5 μM",5.2 ± 0.7%
same,Active caspase 9 ± SD (cells),"caspase 9; MDA-MB-231, 1 μM",8.5 ± 0.6%
"CC(=O)C[Se]C(=O)c1cc(C(=O)[Se]CC(C)=O)cc(C(=O)[Se]CC(C)=O)c1 [EDAG-8, Se,Se,Se-tris-(2-oxopropyl) benzene-1,3,5-tris-(carboxyselenoate)]",IC50,"[1]; Homo sapiens, 24 h",930 ± 70 nM
same,Bax positive cells ± SD,"Bax; MCF-7, 0.5 μM",18.0 ± 1.5%
same,Bax positive cells ± SD,"Bax; MCF-7, 1 μM",32.1 ± 3.1%
same,Active caspase 9 ± SD (cells),"caspase 9; MDA-MB-231, 0.5 μM",8.4 ± 0.9%
same,Active caspase 9 ± SD (cells),"caspase 9; MDA-MB-231, 1 μM",32.5 ± 3.8%
"N.N.[Cl][Pt][Cl] [Cisplatin, reference compound]",IC50,[1]; 24 h incubation,> 5000 nM
same,Bax positive cells ± SD,"Bax; MCF-7, 0.5 μM",2.9 ± 0.9%
same,Bax positive cells ± SD,"Bax; MCF-7, 1 μM",3.0 ± 0.8%
same,Active caspase 9 ± SD (cells),"caspase 9; MDA-MB-231, 0.5 μM",2.7 ± 0.1%
same,Active caspase 9 ± SD (cells),"caspase 9; MDA-MB-231, 1 μM",2.8 ± 0.3%
